Values quoted from earlier work as cited in patent publication US20120258170A1, “PHARMACEUTICAL CO-CRYSTALS OF QUERCETIN” (Nutracryst Therapeutics Private Limited, priority 2009, published 2012).

Experiments:
[1] = system: AMP-activated protein kinase (AMPK); conditions: HepG2 cells; cited from earlier work
[2] = target: angiotensin-converting enzyme (Homo sapiens, UniProt P12821); conditions: cited from earlier work
[3] = target: human lens aldose reductase (Homo sapiens, UniProt P15121); conditions: cited from earlier work
HeLa cells = conditions: Quercetin pretreatment; cited from earlier work
[4] = P<0.05; cited from earlier work

angiotensin-converting enzyme, sequence (P12821 30-1306, species assumed): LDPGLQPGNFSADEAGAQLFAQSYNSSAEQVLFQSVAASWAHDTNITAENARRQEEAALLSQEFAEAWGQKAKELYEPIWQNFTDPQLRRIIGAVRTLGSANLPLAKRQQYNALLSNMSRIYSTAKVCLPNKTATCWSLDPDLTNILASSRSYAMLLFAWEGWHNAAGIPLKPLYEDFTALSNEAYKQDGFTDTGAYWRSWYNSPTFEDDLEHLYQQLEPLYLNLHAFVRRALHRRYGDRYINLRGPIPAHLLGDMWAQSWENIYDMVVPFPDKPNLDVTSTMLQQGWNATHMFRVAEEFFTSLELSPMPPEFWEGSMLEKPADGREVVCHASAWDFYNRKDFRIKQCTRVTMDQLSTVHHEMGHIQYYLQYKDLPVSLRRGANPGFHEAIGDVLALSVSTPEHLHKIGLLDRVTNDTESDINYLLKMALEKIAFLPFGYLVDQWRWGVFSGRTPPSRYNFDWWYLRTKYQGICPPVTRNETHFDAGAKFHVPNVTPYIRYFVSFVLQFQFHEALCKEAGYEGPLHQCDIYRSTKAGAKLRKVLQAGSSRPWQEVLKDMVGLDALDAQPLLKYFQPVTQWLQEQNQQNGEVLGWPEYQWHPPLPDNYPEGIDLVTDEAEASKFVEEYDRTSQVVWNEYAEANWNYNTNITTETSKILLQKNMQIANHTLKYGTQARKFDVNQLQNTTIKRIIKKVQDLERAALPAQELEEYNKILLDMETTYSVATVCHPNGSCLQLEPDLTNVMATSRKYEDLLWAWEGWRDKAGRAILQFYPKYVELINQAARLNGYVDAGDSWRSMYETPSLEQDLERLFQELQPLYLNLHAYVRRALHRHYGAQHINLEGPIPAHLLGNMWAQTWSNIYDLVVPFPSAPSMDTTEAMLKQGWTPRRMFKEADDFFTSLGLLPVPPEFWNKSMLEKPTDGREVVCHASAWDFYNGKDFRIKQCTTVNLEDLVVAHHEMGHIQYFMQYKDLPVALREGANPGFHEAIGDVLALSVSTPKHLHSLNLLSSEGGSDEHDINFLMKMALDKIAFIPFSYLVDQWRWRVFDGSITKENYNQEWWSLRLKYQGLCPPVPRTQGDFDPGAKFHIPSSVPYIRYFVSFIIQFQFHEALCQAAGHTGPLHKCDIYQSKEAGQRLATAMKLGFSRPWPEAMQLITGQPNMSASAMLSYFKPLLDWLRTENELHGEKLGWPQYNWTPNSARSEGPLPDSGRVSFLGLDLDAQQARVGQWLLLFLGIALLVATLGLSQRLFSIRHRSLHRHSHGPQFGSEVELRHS

O=c1c(O)c(-c2ccc(O)c(O)c2)oc2cc(O)cc(O)c12 [Quercetin]
AMPK phosphorylation [1]: increased | hypotensive effect of bradykinin ([2]; pretreatment 88.7 μmol/kg p.o., 45 min, 14.7 μmol/kg i.v., 5 min, bradykinin 10 nmol/kg i.v.): significantly potentiated | hypertensive response to angiotensin I ([2]; same pretreatment, angiotensin I 0.1 nmol/kg iv): significantly reduced | inhibition of human lens aldose reductase [3]: strong inhibitor | cisplatin-induced apoptosis in HeLa cells (HeLa cells): sensitizes | mRNA expression of PGC-1alpha and SIRT1, mtDNA and cytochrome C concentration [4]: increased | maximal endurance capacity and voluntary wheel running activity [4]: increase
